What all share (type): cell-based
For one test, the target named is T1, human TLR8 (Homo sapiens, UniProt Q9NR97).
T1 construct: host or cells: HEK-Blue cells
T1 sequence (Q9NR97 27-1041): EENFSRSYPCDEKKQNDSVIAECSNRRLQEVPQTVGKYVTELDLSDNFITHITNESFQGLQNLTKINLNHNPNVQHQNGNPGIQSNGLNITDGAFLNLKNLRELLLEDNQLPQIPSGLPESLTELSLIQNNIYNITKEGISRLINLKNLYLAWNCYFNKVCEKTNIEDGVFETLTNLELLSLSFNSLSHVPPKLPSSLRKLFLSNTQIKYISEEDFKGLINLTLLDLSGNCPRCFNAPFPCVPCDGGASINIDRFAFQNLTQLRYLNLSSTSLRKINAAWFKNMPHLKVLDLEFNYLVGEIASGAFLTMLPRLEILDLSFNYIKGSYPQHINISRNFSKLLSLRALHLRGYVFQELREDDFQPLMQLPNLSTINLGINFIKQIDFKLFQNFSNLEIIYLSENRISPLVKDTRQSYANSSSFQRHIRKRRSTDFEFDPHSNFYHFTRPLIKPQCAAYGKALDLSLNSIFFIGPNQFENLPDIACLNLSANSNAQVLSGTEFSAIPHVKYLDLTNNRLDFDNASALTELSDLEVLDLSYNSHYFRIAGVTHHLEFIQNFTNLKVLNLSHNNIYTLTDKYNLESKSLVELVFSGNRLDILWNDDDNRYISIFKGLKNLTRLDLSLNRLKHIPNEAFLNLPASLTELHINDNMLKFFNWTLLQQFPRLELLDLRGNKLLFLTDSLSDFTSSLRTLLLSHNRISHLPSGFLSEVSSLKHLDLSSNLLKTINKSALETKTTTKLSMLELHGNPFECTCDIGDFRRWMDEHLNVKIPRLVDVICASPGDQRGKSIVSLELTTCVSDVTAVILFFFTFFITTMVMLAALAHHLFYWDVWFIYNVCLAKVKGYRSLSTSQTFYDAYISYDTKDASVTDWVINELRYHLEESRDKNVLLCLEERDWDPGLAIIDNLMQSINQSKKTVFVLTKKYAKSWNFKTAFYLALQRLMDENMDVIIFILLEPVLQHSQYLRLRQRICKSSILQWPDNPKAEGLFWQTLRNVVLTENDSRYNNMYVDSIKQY
Nature of the test: TLR8 inhibition reporter assay (HEK-Blue cells, SEAP reporter, R848 stimulation). The settings on record: HEK-Blue cells overexpressing human TLR8, SEAP reporter, R848 15.9 μM; read-out: TLR8 IC50. The method in brief:
(§1)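 Human TLR7/8/9 HEK-Blue reporter lines; dose range 0.05 nM–50 μM; 30 min RT preincubation; stimulus gardiquimod 7.5 μM / R848 15.9 μM / ODN2006 5 nM respectively; 22 h, 37 °C; SEAP detected colorimetrically.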

For another test, the target named is T2, human TLR7 (Homo sapiens, UniProt Q9NYK1).
T2 construct: host or cells: HEK-Blue cells
T2 sequence (Q9NYK1 27-1049): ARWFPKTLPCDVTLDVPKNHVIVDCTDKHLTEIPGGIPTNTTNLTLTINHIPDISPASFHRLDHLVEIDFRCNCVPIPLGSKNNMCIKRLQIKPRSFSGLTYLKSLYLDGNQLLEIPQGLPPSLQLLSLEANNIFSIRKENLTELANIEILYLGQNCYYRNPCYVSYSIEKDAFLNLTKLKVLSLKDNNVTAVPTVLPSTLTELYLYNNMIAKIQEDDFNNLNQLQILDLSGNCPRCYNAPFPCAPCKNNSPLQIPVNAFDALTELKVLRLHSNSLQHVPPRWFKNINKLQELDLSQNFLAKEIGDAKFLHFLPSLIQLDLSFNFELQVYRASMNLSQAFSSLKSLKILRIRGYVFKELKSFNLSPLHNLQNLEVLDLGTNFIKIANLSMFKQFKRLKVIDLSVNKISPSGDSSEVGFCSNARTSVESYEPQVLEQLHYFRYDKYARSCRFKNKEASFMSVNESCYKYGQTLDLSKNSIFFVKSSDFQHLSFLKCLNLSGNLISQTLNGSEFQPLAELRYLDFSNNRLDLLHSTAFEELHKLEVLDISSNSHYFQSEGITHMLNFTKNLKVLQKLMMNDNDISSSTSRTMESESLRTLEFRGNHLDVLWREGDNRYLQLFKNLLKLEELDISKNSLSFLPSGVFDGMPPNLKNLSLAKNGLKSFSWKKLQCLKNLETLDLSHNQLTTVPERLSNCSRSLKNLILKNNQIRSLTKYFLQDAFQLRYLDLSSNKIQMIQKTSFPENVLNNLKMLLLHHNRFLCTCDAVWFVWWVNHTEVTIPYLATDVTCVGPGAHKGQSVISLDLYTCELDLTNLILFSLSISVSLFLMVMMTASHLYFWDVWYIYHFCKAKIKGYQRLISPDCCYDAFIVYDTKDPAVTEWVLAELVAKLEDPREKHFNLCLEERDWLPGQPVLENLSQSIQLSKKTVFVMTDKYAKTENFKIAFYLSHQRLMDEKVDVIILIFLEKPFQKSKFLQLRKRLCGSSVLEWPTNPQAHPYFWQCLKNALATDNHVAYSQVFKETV
Nature of the test: TLR7 inhibition reporter assay (HEK-Blue cells, SEAP reporter, gardiquimod stimulation). The following applies: HEK-Blue cells overexpressing human TLR7, SEAP reporter, gardiquimod 7.5 μM; read-out: TLR7 IC50. The method in brief:
as §1
(In a reporter assay the amount or activity of a reporter protein is the signal.)

The target of a further test is T3, human TLR9 (Homo sapiens, UniProt Q9NR96).
T3 construct: host or cells: HEK-Blue cells
T3 sequence (Q9NR96 26-1032): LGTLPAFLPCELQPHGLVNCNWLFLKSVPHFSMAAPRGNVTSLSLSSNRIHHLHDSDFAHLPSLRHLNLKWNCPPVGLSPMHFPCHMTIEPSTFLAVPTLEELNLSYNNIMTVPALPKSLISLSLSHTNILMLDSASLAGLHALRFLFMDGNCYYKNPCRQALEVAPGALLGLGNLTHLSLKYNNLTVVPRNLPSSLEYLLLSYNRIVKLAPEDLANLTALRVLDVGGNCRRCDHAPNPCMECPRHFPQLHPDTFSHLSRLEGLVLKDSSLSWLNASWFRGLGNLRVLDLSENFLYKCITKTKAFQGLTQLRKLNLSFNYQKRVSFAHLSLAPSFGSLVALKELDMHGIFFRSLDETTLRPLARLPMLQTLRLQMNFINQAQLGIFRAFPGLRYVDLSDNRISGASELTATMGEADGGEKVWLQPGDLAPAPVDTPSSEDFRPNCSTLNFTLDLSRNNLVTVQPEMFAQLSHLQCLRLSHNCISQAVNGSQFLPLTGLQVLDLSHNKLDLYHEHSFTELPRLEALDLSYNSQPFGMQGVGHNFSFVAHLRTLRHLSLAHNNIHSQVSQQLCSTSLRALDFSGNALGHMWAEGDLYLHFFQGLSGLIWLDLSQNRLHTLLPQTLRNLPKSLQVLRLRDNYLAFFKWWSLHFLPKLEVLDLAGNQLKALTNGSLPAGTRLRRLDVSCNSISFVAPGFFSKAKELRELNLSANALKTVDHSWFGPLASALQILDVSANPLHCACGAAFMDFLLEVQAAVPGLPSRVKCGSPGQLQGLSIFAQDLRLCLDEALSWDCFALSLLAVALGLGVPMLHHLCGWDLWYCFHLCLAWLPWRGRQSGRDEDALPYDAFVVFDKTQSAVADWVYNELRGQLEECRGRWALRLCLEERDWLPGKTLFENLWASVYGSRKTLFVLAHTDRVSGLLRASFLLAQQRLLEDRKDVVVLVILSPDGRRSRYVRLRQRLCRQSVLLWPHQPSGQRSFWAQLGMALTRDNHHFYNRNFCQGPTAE
Nature of the test: TLR9 inhibition reporter assay (HEK-Blue cells, SEAP reporter, ODN2006 stimulation). The settings on record: HEK-Blue cells overexpressing human TLR9, SEAP reporter, ODN2006 5 nM. The procedure, abridged:
as §1

For eleven molecules, IC50 results are on record in patent US20230139171A1 (SITA Information Networking Computing UK Limited, priority 2019, published 2023).

A value given as a limit tells only on which side of the number the result lay.

What is called IC50 is the concentration needed to halve the response being measured. With `Cc1c(-c2[nH]c3sc(C4CCN(CC(=O)N(C)C)CC4)nc3c2C(C)C)cn2ncnc2c1C` [Example 57, 2-(4-(5-(7,8-dimethyl-[1,2,4]triazolo[1,5-a]pyridin-6-yl)-6-isopropyl-4H-pyrrolo[3,2-d]thiazol-2-yl)piperidin-1-yl)-N,N-dimethylacetamide], the IC50 came to 1.34 nM at human TLR8, 4.24 nM on human TLR7 and 23100 nM against human TLR9.
Regarding `Cc1c(-c2[nH]c3sc(C4CCN(CC(N)=O)CC4)nc3c2C(C)C)cn2ncnc2c1C` [Example 58, 2-(4-(5-(7,8-dimethyl-[1,2,4]triazolo[1,5-a]pyridin-6-yl)-6-isopropyl-4H-pyrrolo[3,2-d]thiazol-2-yl)piperidin-1-yl)acetamide], the IC50 at human TLR8 was found to be 1.43 nM; at human TLR7 it was 3.01 nM; at human TLR9, 32800 nM.
The like results for `COc1cc(-c2[nH]c3sc(C4CCC(N5CC6(C5)CS(=O)(=O)C6)CC4)nc3c2C(C)C)cn2ncnc12` (stereo not drawn) [Example 97, 6-(4-(6-isopropyl-5-(8-methoxy-[1,2,4]triazolo[1,5-a]pyridin-6-yl)-4H-pyrrolo[3,2-d]thiazol-2-yl)cyclohexyl)-2-thia-6-azaspiro[3.3]heptane 2,2-dioxide] were, in that order, 41.9 nM, 2.42 nM and 5490 nM.
The like results for `COc1cc(-c2[nH]c3sc(C4CCC(NC5(C#N)CC5)CC4)nc3c2C(C)C)cn2ncnc12` (stereo not drawn) [Example 106, 1-((4-(6-isopropyl-5-(8-methoxy-[1,2,4]triazolo[1,5-a]pyridin-6-yl)-4H-pyrrolo[3,2-d]thiazol-2-yl)cyclohexyl)amino)cyclopropane-1-carbonitrile] were, in that order, 90.9 nM, 2.25 nM and 14300 nM.
For `COc1cc(-c2[nH]c3sc(C4CCC(NC5(C#N)CC5)CC4)nc3c2C(C)C)cn2ncnc12` (stereo not drawn) [Example 107, 1-((4-(6-isopropyl-5-(8-methoxy-[1,2,4]triazolo[1,5-a]pyridin-6-yl)-4H-pyrrolo[3,2-d]thiazol-2-yl)cyclohexyl)amino)cyclopropane-1-carbonitrile], the half-inhibitory concentration (IC50) at human TLR8 is 190 nM; at human TLR7, 3.6 nM; against human TLR9 it was 15400 nM.
For `COc1cc(-c2[nH]c3sc(C4CCC(N(C)C5COC5)CC4)nc3c2C(C)C)cn2ncnc12` (stereo not drawn) [Example 124, N-(4-(6-isopropyl-5-(8-methoxy-[1,2,4]triazolo[1,5-a]pyridin-6-yl)-4H-pyrrolo[3,2-d]thiazol-2-yl)cyclohexyl)-N-methyloxetan-3-amine], the half-maximal inhibitory concentration (IC50) on human TLR8 is 31.5 nM; on human TLR7 it was 7.72 nM; at human TLR9, 28600 nM.
The like results for `COc1cc(-c2[nH]c3sc(C4CCC(NC(=O)CN(C)C)CC4)nc3c2C(C)C)cn2ncnc12` (stereo not drawn) [Example 126, 2-(dimethylamino)-N-(4-(6-isopropyl-5-(8-methoxy-[1,2,4]triazolo[1,5-a]pyridin-6-yl)-4H-pyrrolo[3,2-d]thiazol-2-yl)cyclohexyl)acetamide] were, in that order, 6.83 nM, 0.98 nM and 13200 nM.
The like results for `COc1cc(-c2[nH]c3sc(C4CCC(NS(C)(=O)=O)CC4)nc3c2C(C)C)cn2ncnc12` (stereo not drawn) [Example 127, N-(4-(6-isopropyl-5-(8-methoxy-[1,2,4]triazolo[1,5-a]pyridin-6-yl)-4H-pyrrolo[3,2-d]thiazol-2-yl)cyclohexyl)methanesulfonamide] were, in that order, 178 nM, 1.99 nM and > 50000 nM.
The like results for `CCN(C)CC(=O)N[C@H]1CC[C@H](c2nc3c(C(C)C)c(-c4cc(OC)c5ncnn5c4)[nH]c3s2)CC1` [Example 128, Trans 2-(ethyl(methyl)amino)-N-(4-(6-isopropyl-5-(8-methoxy-[1,2,4]triazolo[1,5-a]pyridin-6-yl)-4H-pyrrolo[3,2-d]thiazol-2-yl)cyclohexyl)acetamide] were, in that order, 8.29 nM, 1.21 nM and 13400 nM.
Turning to `COc1cc(-c2[nH]c3sc(C4CCC(NC(=O)CNCC(C)C)CC4)nc3c2C(C)C)cn2ncnc12` (stereo not drawn) [Example 129, 2-(isobutylamino)-N-(4-(6-isopropyl-5-(8-methoxy-[1,2,4]triazolo[1,5-a]pyridin-6-yl)-4H-pyrrolo[3,2-d]thiazol-2-yl)cyclohexyl)acetamide], the IC50 worked out at 7.36 nM on human TLR8, 1.34 nM at human TLR7 and 14400 nM against human TLR9.
The like results for `Cc1c(-c2[nH]c3sc(C4CCC(NCC(N)=O)CC4)nc3c2C(C)C)cn2ncnc2c1C` (stereo not drawn) [Example 210, 2-((4-(5-(7,8-dimethyl-[1,2,4]triazolo[1,5-a]pyridin-6-yl)-6-isopropyl-4H-pyrrolo[3,2-d]thiazol-2-yl)cyclohexyl)amino)acetamide] were, in that order, 1.24 nM, 1.8 nM and 23800 nM.
